{"source": "patent US11169138B2", "about": "“Nanopores with internal protein adaptors” (priority 2015, dated 2021)", "key": {"[1]": {"biological_target": "SBD2 (Lactococcus lactis, UniProt Q9CES5)", "assay": "Glutamine binding to SBD2 inside type I ClyA-AS nanopore", "method": "The interaction of SBD2 with glutamine was sampled using type I ClyA-AS nanopores at −100 mV. The addition of 72 nM of SBD2 induced a current blockade that fluctuated between two levels I (Ires %=63.6±0.3%, τ=256±5 ms, N=3) and level III (Ires %=61.0±0.2%, τ=145±13 ms, N=3). Protein blockades remained inside the nanopore for 3.9±0.7 s (mean±S.E., n=225). Rarely the current visited an additional ionic current level, Level II (Ires %=62.5±0.3%, τ=18±1 ms, n=856, N=3).\nWe studied ligand binding by stepwise addition of glutamine at concentrations ranging from 200 nM to 3 μM. […] Binding rates were determined from the lifetimes as described above. Upon linear fitting of the binding rate curve the glutamine binding rates from Level I and III were determined. […] The opening rate constant was determined by the intercept at zero koff=39.7 s^1."}, "[2]": {"biological_target": "T1, DHFRtag:MTX (Escherichia coli, UniProt P0ABQ4, C152S/C85A)", "T1 construct": "Met-Ala-Ser-Ala (N); made in house; host or cells: E. cloni EXPRESS BL21(DE3) E. coli", "T1 sequence (P0ABQ4 1-159 C85A/C152S)": "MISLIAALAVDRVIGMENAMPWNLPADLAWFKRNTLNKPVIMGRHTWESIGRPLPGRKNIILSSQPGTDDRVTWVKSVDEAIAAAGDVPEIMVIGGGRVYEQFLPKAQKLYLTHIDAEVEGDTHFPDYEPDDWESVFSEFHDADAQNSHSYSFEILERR", "assay": "Ligand binding to DHFRtag:MTX complex confined inside ClyA-AS nanopore, single-channel recording", "design": "species or system E. coli", "method": "(§1) The applied potential refers to the potential of the trans electrode. ClyA-AS nanopores were inserted into lipid bilayers from the cis compartment, which was connected to the ground electrode. The two compartments were separated by a 25 μm thick polytetrafluoroethylene film (Goodfellow Cambridge Limited) containing an orifice of ˜100 μm in diameter. The aperture was pretreated with ˜5 μl of 10% hexadecane in pentane and a bilayer was formed by the addition of ˜10 μL of 1,2-diphytanoyl-sn-glycero-3-phosphocholine (DPhPC) in pentane (10 mg/mL) to both electrophysiology chambers. Typically, the addition of 0.01-0.1 ng of oligomeric ClyA-AS to the cis compartment (0.5 mL) was sufficient to obtain a single channel. […] Electrical recordings were carried out in 150 mM NaCl, 15 mM Tris.HCl pH 8.0 (AlkB experiments) or 150 mM NaCl, 15 mM Tris.HCl pH 7.5 (DHFR experiments). The temperature of the recording chamber was maintained at 28° C. by water circulating through a metal case in direct contact with the bottom and sides of the chamber.\n(§2) Electrical signals from planar bilayer recordings were amplified using an Axopatch 200B patch clamp amplifier (Axon Instruments) and digitized with a Digidata 1440 A/D converter (Axon Instruments). Data were recorded by using the Clampex 10.4 software (Molecular Devices) and the subsequent analysis was carried out with the Clampfit software (Molecular Devices). Electrical recordings were performed in 150 mM NaCl, 15 mM Tris.HCl pH 8.0 (AlkB) or pH 7.5 (DHFR) by applying a 2 kHz low-pass Bessel filter and a 10 kHz sampling rate. For further analysis traces were filtered digitally with a Bessel (8-pole) low-pass filter with a 50 Hz cut-off. Residual current values (IRES%) were calculated from blocked pore current values (IB) and open pore current values (IO) as IRES %=100*IB/IO. IB and IO were determined from Gaussian fits to all point current histograms (0.05 pA bin size) for at least 15 individual protein blockades. ΔIRES % values were calculated from IRES % using propagation of errors.\n(§3) Current transitions from level 1 were analyzed with the “single-channel search” function in Clampfit. The detection threshold to collect the ligand-induced events for AlkB was set to 4 pA and events shorter than 10 ms were ignored. […] The resulting event dwell times (toff) and the time between events (ton) were binned together as cumulative distributions and fitted to a single exponential to retrieve the ligand-induced lifetimes (τoff) and the ligand-induced event frequencies (f=1/τon). The process of event collection was monitored manually. For AlkB, final values of τon and τoff were based on average values derived from at least 3 single channel experiments at each concentration. Each experiment analysed more than 8 AlkB blockades. At the low ligand concentrations (0.2 mM) about 100 ligand-binding events were measured. Otherwise more than 150 events were collected. […] Subsequently, the ton values were binned together as cumulative distributions and fitted to a single exponential fit to retrieve characteristic τon values. The values for koff represented in FIG. 2b and FIG. 4b were determined by taking the average±standard deviations of 1/toff of at least 3 single channel experiments. The values of the association rate constants (kon) were determined from the slope of the linear regression curves calculated from the dependency of the event frequencies (f=1/τon) on the ligand concentration (OriginLab, FIGS. 2b and 4b). Graphs were made with Origin (OriginLab Corporation) or Clampfit software (Molecular Devices)."}, "[3]": {"biological_target": "T2, DHFR (Escherichia coli, UniProt P0ABQ4, C152S/C85A)", "T2 construct": "Met-Ala-Ser-Ala (N); made in house; host or cells: E. cloni EXPRESS BL21(DE3) E. coli", "T2 sequence (P0ABQ4 1-159 C85A/C152S)": "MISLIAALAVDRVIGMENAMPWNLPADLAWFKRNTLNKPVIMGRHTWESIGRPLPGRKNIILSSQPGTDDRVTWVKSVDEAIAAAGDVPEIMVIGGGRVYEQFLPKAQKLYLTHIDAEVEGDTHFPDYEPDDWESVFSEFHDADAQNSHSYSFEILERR", "assay": "Ligand effects on DHFR (untagged construct) blockades of ClyA-AS nanopore", "format": "binding, E. coli", "settings": "20 μM NADPH cis after 400 nM MTX, −90 mV"}, "[4]": {"biological_target": "T3, AlkB-Fe^++ (E. coli AlkB demethylase) (Escherichia coli, UniProt P05050)", "T3 construct": "made in house; host or cells: E. cloni EXPRESS BL21(DE3) E. coli", "T3 sequence (P05050 with tags, fused parts or gaps)": "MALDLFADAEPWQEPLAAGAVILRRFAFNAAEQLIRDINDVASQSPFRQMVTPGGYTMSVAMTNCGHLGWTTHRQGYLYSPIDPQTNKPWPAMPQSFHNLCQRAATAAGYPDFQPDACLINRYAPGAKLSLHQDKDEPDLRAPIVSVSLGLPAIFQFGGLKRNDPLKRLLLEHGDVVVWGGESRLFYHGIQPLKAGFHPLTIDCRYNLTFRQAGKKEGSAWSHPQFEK", "assay": "Ligand binding to AlkB-Fe++ confined inside ClyA-AS nanopore, single-channel ionic current recording", "settings": "for L2B ΔIRES % (ligand-induced current enhancement from L2): 150 mM NaCl, 15 mM Tris HCl pH 8.0, 28° C.; for L2B ΔIRES % (ligand-induced current enhancement from L2) / mean duration (toff) of ligand-induced events: ligand cis", "method": "as §1, §2, §3\n9, 872-877; Bleijlevens, B. et al. (2012) Biochem. 2012, 51, 3334-3341]."}, "[5]": {"biological_target": "T4, N120D-AlkB-Fe^++ (Escherichia coli, UniProt P05050, N120D)", "T4 construct": "additional alanine after the starting methionine (cloning residue, between Met1 and Leu2) (N); Strep-tag via glycine-serine-alanine linker (C); made in house; host or cells: pT7-SC1 plasmid; expression host not restated for the mutant", "T4 sequence (P05050 1-216 N120D)": "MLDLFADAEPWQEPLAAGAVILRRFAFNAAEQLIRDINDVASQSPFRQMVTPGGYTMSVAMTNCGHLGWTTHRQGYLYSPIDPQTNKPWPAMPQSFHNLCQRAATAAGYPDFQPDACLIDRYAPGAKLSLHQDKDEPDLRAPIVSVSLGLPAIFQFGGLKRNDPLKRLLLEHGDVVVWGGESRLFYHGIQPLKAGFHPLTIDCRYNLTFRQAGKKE", "assay": "Ligand binding to N120D AlkB mutant confined inside ClyA-AS nanopore", "design": "species or system E. coli", "settings": "7.2 mM 2-OG, N=4"}}, "note": "“Also recorded” adds a separate entry of the source. Like-named read-outs stand apart in the source and are kept apart here."}
{"smiles": "NC(=O)CC[C@H](N)C(=O)O", "note": "[glutamine]", "values": [{"measurement": "Kd", "setting": "[1]", "result": "1270 ± 140", "unit": "nM"}, {"measurement": "kon", "setting": "[1]; read-out: kon, binding from Level I", "result": "3.7e+07", "unit": "M⁻¹ s⁻¹"}, {"measurement": "kon", "setting": "[1]; read-out: kon, binding from Level II (so in the source)", "result": "3.8e+07", "unit": "M⁻¹ s⁻¹"}, {"measurement": "koff (opening rate constant)", "setting": "[1]; −100 mV, intercept at zero", "result": 39.7, "unit": "s^1"}]}
{"smiles": "NC(=O)C1=CN([C@@H]2O[C@H](COP(=O)(O)OP(=O)(O)OC[C@H]3O[C@@H](n4cnc5c(N)ncnc54)[C@H](OP(=O)(O)O)[C@@H]3O)[C@@H](O)[C@H]2O)C=CC1", "note": "[NADPH]", "values": [{"measurement": "enhancement of residual ionic current on NADPH binding", "setting": "[2]; DHFR10+/4+/tag:MTX complexes, −90 mV", "result": "~4", "unit": "pA"}, {"measurement": "DHFRtag:MTX blockades with \"long\" NADPH events", "setting": "[2]; NADPH trans", "result": "~55", "unit": "%"}, {"measurement": "DHFRtag:MTX blockades with \"short\" NADPH events", "setting": "[2]; NADPH trans", "result": "Approximately 45%"}, {"measurement": "kon, \"long\" NADPH events", "setting": "[2]; −90 mV", "result": "4.8 ± 1.2", "unit": "s⁻¹ µM⁻¹"}, {"measurement": "kon, \"short\" NADPH events", "setting": "[2]; −90 mV", "result": "5.8 ± 1.2", "unit": "s⁻¹ µM⁻¹"}, {"measurement": "ΔIRES %, \"long\" NADPH events", "setting": "[2]; −90 mV", "result": "2.7±0.7", "unit": "%"}, {"measurement": "ΔIRES %, \"short\" NADPH events", "setting": "[2]; −90 mV", "result": "2.2±0.9", "unit": "%"}, {"measurement": "lifetime of \"long\" NADPH binding events", "setting": "[2]; −90 mV, NADPH trans", "result": "> 3", "unit": "s"}, {"measurement": "lifetime of \"short\" NADPH binding events", "setting": "[2]; −90 mV, NADPH trans", "result": "38.5 ± 0.8", "unit": "ms"}, {"measurement": "kon −90 mV", "setting": "[2]; −90 mV, pH 7.5, 28° C.", "result": "4.8 ± 1.2 × 10^6 s^−1 M^−1"}, {"measurement": "L2B ΔIRES % (first NADPH column as printed)", "setting": "[2]; −90 mV, pH 7.5, 28° C., ligand trans", "result": "+2.7 ± 0.7%"}, {"measurement": "L1B ΔIRES %", "setting": "[2]; −90 mV, pH 7.5, 28° C., ligand trans, from L1", "result": "+2.7±0.7%"}, {"measurement": "L2B ΔIRES %", "setting": "[2]; −90 mV, pH 7.5, 28° C., ligand trans, from L2", "result": "+5.4 ± 1.0%"}, {"measurement": "effect of NADPH on DHFR blockades in presence of MTX", "setting": "[3]", "result": "abolished; also recorded: nearly total elimination of the DHFR blockades"}]}
{"smiles": "O=C(O)CCC(=O)C(=O)O", "note": "[2-OG, 2-oxoglutarate]", "values": [{"measurement": "L2B ΔIRES % (ligand-induced current enhancement from L2)", "setting": "[4]; −60 mV", "result": "+1.7 ± 1.2%"}, {"measurement": "mean duration (toff) of ligand-induced events", "setting": "[4]; −60 mV", "result": "1.7 ± 0.5", "unit": "s"}, {"measurement": "koff −60 mV", "setting": "[4]; −60 mV, pH 8.0, 28° C.", "result": "0.66 ± 0.33", "unit": "s⁻¹"}, {"measurement": "kon −60 mV", "setting": "[4]; −60 mV, pH 8.0, 28° C., slope of event frequency vs concentration", "result": "1.8 ± 0.3 × 10^3 s^−1 M^−1"}, {"measurement": "current transitions in N120D-AlkB-Fe++ blockades", "setting": "[5]", "result": "did not induce current transitions"}]}
{"smiles": "O=C(O)CNC(=O)C(=O)O", "note": "[N-OG, N-oxalylglycine]", "values": [{"measurement": "koff", "setting": "[4]; pH 8, read-out: koff −60 mV", "result": "0.57 ± 0.1", "unit": "s⁻¹"}, {"measurement": "kon", "setting": "[4]; pH 8, read-out: kon −60 mV", "result": "1200 ± 300000", "unit": "M⁻¹ s⁻¹"}, {"measurement": "L2B ΔIRES % (ligand-induced current enhancement from L2)", "setting": "[4]; −60 mV", "result": "+1.7 ± 1.0%"}, {"measurement": "mean duration (toff) of ligand-induced events", "setting": "[4]; −60 mV", "result": "1.8 ± 0.4", "unit": "s"}]}
